Experimental data reported in patent US4371544A, “Pharmaceutical composition containing 1,1,3,5-substituted biuret compound” (Taiho Pharmaceutical Company Limited, priority 1979, dated 1983).

Legend:
ddy strain of male mice [1] = test: Acute toxicity (oral, mice, 7 days observation); assay type: in vivo
Experimental: (§1) Next, several tests for determining the pharmacological properties, in that acute toxicity, anti-pyretic activity, analgesic activity and anti-inflammatory activity of the present 1,1,3,5-substituted biuret compounds of the formula (1) were conducted and the test results are shown in Table (2). In the tests, each compounds to be tested was used as a suspension in 0.25% carboxymethylcellulose solution. Methods for testing are explained as follows:
The ddy strain of male mice (body weight, 20-25 g) were used as test animals. The mice were fasted overnight and the compound to be tested was administered orally. […] The lethal dose (mg/kg, body weight) of the test compound was determined in connection with the death number of mice/the number of mice tested. In Table 2, the values indicated with Δ marks are 50% lethal dose, LD50 (mg/kg, body weight).

ddy strain of male mice [2] = test: Analgesic activity, acetic acid-induced stretching method; assay type: in vivo, mouse (ddy); settings: for Analgesic activity, acetic acid-induced stretching method, inhibitory ratio: 100 mg/kg oral, 1 hour before acetic acid; for inhibition in vivo at 200 mg/kg / inhibition in vivo at 100 mg/kg: Mus musculus, po, read-out: Analgesic activity, acetic acid-induced stretching method, inhibitory ratio
Experimental: as §1
According to the method reported by Koster et al., [Fed. Proc., Vol. 18, pp. 412 (1959)], the ddy strain of male mice (body weight, 20-25 g) were used as test animals. The mice were fasted overnight, 100 mg/kg body weight of the test compound was administered orally, then 1 hour after the administration, 0.2 ml of 0.7% acetic acid solution was injected intraperitoneally. The acetic acid-induced stretching symptom of mouse was observed. Analgesic activity of the test compound was calculated as the inhibitory ratio (%). In Table 2, the values in parentheses show the data obtained from the test by using the dosage other than 100 mg/kg body weight. Further, the values indicated with Δ marks show 50% effective dose, ED50 (mg/kg body weight).

ddy strain of male mice [3] = test: Analgesic activity, Haffner method (morphine threshold dose, clamp); assay type: in vivo, mouse (ddy); settings: for inhibition in vivo at 100 mg/kg: read-out: Analgesic activity, Haffner method, inhibitory ratio
Experimental: as §1
According to the modified method reported by Fujimura et. al., [Bulletin of the Institute for Chemical Research, Kyoto University, No. 25, pp. 36 (1951)], the ddy strain of male mice (body weight, 20-25 g) were used as test animals. The mice were fasted overnight, 100 mg/kg body weight of the test compound was administered orally, then 45 minutes after the administration, the threshold amount (1.5-2.5 mg/kg body weight) of morphine hydrochloride was injected subcutaneously. Then 1-hour pain reaction of the mouse caused by a clamp was observed. Analgesic activity of the test compound was calculated as the inhibitory ratio (%). In Table 2, the values in parentheses show the data obtained from the test by using the dosage other than 100 mg/kg body weight. Further, the values indicated with Δ marks show 50% effective dose, ED50 (mg/kg body weight).

[4] = system: Wistar strain of male rats; test: Anti-pyretic activity (dry-yeast-induced fever); assay type: in vivo, rat (Wistar); settings: oral (dose not given), up to 4 hours after administration
Experimental: as §1
According to the method reported by Tanabe [Folia Pharmacologia Japonica, Vol. 73, pp. 803 (1977)], the Wistar strain of male rats (150-180 g, body weight) were used as test animals. The rats were fasted overnight, and 1 ml/100 g (body weight) of 10% dry-yeast suspension were subcutaneously injected on the back of the rats. Five hours after the injection, the test compound was administered orally, then the body temperature of the rat was measured at time sequences. Anti-pyretic activity of the test compound was determined as the FI (febril index) by integrating pyrogenetic curve up to 4 hours after the administration of the test compound with time, and indicated as inhibitory ratio (%) shown by the following formula, [formula]

[5] = Mus musculus, 100 mg/kg oral, 45 minutes before morphine hydrochloride
[6] = 100 mg/kg oral, 45 minutes before morphine hydrochloride

SMILES | Acute toxicity: death number of mice/number of mice tested (ddy strain of male mice [1]; 1000 mg/kg oral) | Acute toxicity: death number of mice/number of mice tested (ddy strain of male mice [1]; 2000 mg/kg oral) | Analgesic activity, acetic acid-induced stretching method, inhibitory ratio (ddy strain of male mice [2]) | inhibition in vivo at 100 mg/kg (ddy strain of male mice [3]; [5]) | Anti-pyretic activity, inhibitory ratio (febril index) [4] | Analgesic activity, Haffner method, inhibitory ratio (ddy strain of male mice [3]; [6]) | Analgesic activity, Haffner method, inhibitory ratio (ddy strain of male mice [3]; 200 mg/kg oral) | inhibition in vivo at 200 mg/kg (ddy strain of male mice [2]) | inhibition in vivo at 100 mg/kg (ddy strain of male mice [2]) | Acute toxicity: death number of mice/number of mice tested (ddy strain of male mice [1]; mouse, in vivo) | ED50 (ddy strain of male mice [3]; Mus musculus, oral, Δ mark, range in parentheses)
COc1ccccc1NC(=O)N(C)C(=O)N(C)C [compound 22, 1,1,3-Trimethyl-5-(2-methoxyphenyl)biuret] | 0/4 | 2/4 | 37.5% | 50% | 13% | – | – | – | – | – | –
COc1ccc(NC(=O)N(C)C(=O)N(C)C)cc1OC [compound 24, 1,1,3-Trimethyl-5-(3,4-dimethoxyphenyl)biuret] | 0/4 | 4/4 | 75% | – | 18% | 62.5% | – | – | – | – | –
Cc1cccc(NC(=O)N(C)C(=O)N(C)C)c1C [compound 29, 1,1,3-Trimethyl-5-(2,3-dimethylphenyl)biuret] | 1/4 | 4/4 | – | – | 40% | 25% | – | – | – | – | –
Cc1cccc(C)c1NC(=O)N(C)C(=O)N(C)C [compound 31, 1,1,3-Trimethyl-5-(2,6-dimethylphenyl)biuret] | – | – | 75% | – | 69% | 37.5% | – | – | – | – | –
Cc1c(Cl)cccc1NC(=O)N(C)C(=O)N(C)C [compound 32, 1,1,3-Trimethyl-5-(2-methyl-3-chlorophenyl)biuret] | 1/4 | 4/4 | 75% | – | 45% | 25% | – | – | – | – | –
CSc1ccc(NC(=O)N(C)C(=O)N(C)C)cc1 [compound 34, 1,1,3-Trimethyl-5-(4-methylthiophenyl)biuret] | 0/4 | 4/4 | 50% | – | – | – | – | – | – | – | –
CCCN(C(=O)Nc1ccccc1)C(=O)N(C)C [compound 37, 1,1-Dimethyl-3-n-propyl-5-phenylbiuret] | – | 0/4 | 37.5% | – | 12% | – | 62.5% | – | – | – | –
CCCCNC(=O)N(C(=O)N(C)C)c1ccccc1 [compound 40] | 0/4 | 1/4 | – | 62.5% | – | – | – | 62.5% | – | – | –
CCCCN(C)C(=O)N(C)C(=O)Nc1ccccc1 [compound 48, 1,3-Dimethyl-1-n-butyl-5-phenylbiuret] | 0/4 | 3/4 | 37.5% | – | 35% | 25% | – | – | – | – | –
CNC(=O)N(C)C(=O)N(c1ccccc1)c1ccccc1 [compound 65, 1,1-Diphenyl-3,5-dimethylbiuret] | 1/4 | 4/4 | – | 50% | – | – | – | – | 12.5% | – | –
CN(C(=O)Nc1ccccc1)C(=O)N1CCCC1 [compound 68, 1,1-Tetramethylene-3-methyl-5-phenylbiuret] | – | – | – | – | 24% | – | – | – | 75% | 2/4 | –
O=C(NC(=O)N1CCCCC1)Nc1ccccc1 [compound 69, 1,1-Pentamethylene-5-phenylbiuret] | – | 0/4 | – | – | – | – | – | 50% | – | – | 115 mg/kg
CNC(=O)N(C)C(=O)N1CCOCC1 [compound 72, 1,1-(3-Oxapentamethylene)-3,5-dimethylbiuret] | – | 0/4 | – | 25% | – | – | – | – | 50% | – | –
